Test results: ChEMBL document CHEMBL1201862, “PubChem BioAssay data set” (2004)
“And” between values parts separate entries of the source, which are not always exact repeats. Identical values can stand only once.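 Tested at 5 concentrations; 48 h exposure; 96-well plates; endpoints linearly interpolated, else capped at highest concentration. The concentration for 50% growth inhibition is given as GI50.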 The source made the active and inactive calls. No stated cut-off is given here; in the data, active = GI50 up to about 1.1 µM and inactive = higher.

What was measured:
Test in all cases: NCI anticancer screen, dose series, 48 h
MOLT-4 = system: MOLT-4
DU-145 = system: DU-145
IGROV-1 = system: IGROV-1
MDA-MB-231 = system: MDA-MB-231
OVCAR-3 = system: OVCAR-3
U-251 = system: U-251
SNB-75 = system: SNB-75
786-0 = system: 786-0
SW-620 = system: SW-620
ACHN = system: ACHN
SNB-19 = system: SNB-19
K562 = system: K562
SF-539 = system: SF-539
OVCAR-8 = system: OVCAR-8
MCF7 = system: MCF7
LOX IMVI = system: LOX IMVI
SK-MEL-2 = system: SK-MEL-2
M14 = system: M14
SF-295 = system: SF-295
HCC 2998 = system: HCC 2998

Measured: GI50

O=C(O)C1(C(=O)O)CCN(S(=O)(=O)c2ccccc2)CC1
inactive: MOLT-4 > 100 µM | DU-145 > 100 µM | IGROV-1 > 100 µM | MDA-MB-231 > 100 µM | OVCAR-3 > 100 µM | U-251 > 100 µM | SNB-75 > 100 µM | 786-0 > 100 µM | SW-620 > 100 µM | ACHN > 100 µM | SNB-19 > 100 µM | K562 > 100 µM | SF-539 > 100 µM | OVCAR-8 > 100 µM | MCF7 > 100 µM | LOX IMVI > 100 µM | SK-MEL-2 > 100 µM | M14 > 100 µM | SF-295 > 100 µM

CCCCN1CCC(O)(c2cc(C(=O)O)[nH]c2-c2cc(C)no2)C1=O (stereo not given)
inactive: MOLT-4 > 100 µM | DU-145 > 100 µM | IGROV-1 > 100 µM | MDA-MB-231 > 100 µM | OVCAR-3 > 100 µM | U-251 > 100 µM | SNB-75 49.9 µM | 786-0 > 100 µM | SW-620 > 100 µM | ACHN > 100 µM | SNB-19 > 100 µM | K562 > 100 µM | OVCAR-8 > 100 µM | MCF7 > 100 µM | HCC 2998 > 100 µM | SK-MEL-2 > 100 µM | M14 > 100 µM | SF-295 > 100 µM

C=C(CCOC)CCC1CCCCC(=C)[C@H]1O (stereo not given in full)
inactive: MOLT-4 > 100 µM | DU-145 > 100 µM | IGROV-1 > 100 µM | MDA-MB-231 > 100 µM | OVCAR-3 > 100 µM | U-251 > 100 µM | SNB-75 > 100 µM | 786-0 > 100 µM | SW-620 > 100 µM | ACHN > 100 µM | SNB-19 > 100 µM | K562 > 100 µM | OVCAR-8 > 100 µM | MCF7 > 100 µM | SK-MEL-2 > 100 µM | M14 > 100 µM | SF-295 > 100 µM

COC(=O)C1OC(O[C@H]2CC[C@]3(C)[C@H]4CC=C5[C@@H]6CC(C)(C)CC[C@]6(C(=O)OC6OCC(O)C(O)C6OC6OC(C)C(OC7OCC(O)C(O)C7O)C(O)C6O)[C@H](O)C[C@@]5(C)[C@]4(C)CC[C@H]3C2(C)C)C(O)C(O)C1O (stereo not given in full)
inactive: DU-145 9.73 µM and 13.4 µM | IGROV-1 15.8 µM and 11.7 µM | MDA-MB-231 1.91 µM and 2.36 µM | OVCAR-3 11.8 µM and 14.8 µM | U-251 5.55 µM and 6.11 µM | SNB-75 4.81 µM and 8.53 µM | 786-0 5.56 µM and 8.55 µM | SW-620 13.2 µM and 11.7 µM | ACHN 4.35 µM and 4.5 µM | SNB-19 4.56 µM and 7.24 µM | K562 6.28 µM and 10.8 µM | HCC 2998 2.82 µM and 1.82 µM | LOX IMVI 3.36 µM and 6.43 µM | SK-MEL-2 2.7 µM and 2.9 µM | M14 2.75 µM and 3.91 µM | SF-295 3.95 µM and 3.91 µM

COc1ccc(OC)c(NC(=O)CCC/C(CC(=O)c2ccc(O)c(OC)c2)=N\Nc2ccc([N+](=O)[O-])cc2)c1
inactive: MOLT-4 > 100 µM | IGROV-1 > 100 µM | OVCAR-3 > 100 µM | U-251 32.1 µM | SNB-75 22.5 µM | 786-0 27.6 µM | SW-620 > 100 µM | ACHN 80.4 µM | SNB-19 26.6 µM | K562 30.1 µM | SF-539 57.7 µM | OVCAR-8 28.2 µM | HCC 2998 > 100 µM | LOX IMVI 40.8 µM | SK-MEL-2 51.8 µM | M14 > 100 µM | SF-295 52.8 µM

CC1=C(O)C(=O)C2=C(C1=O)[C@@H]([C@@H](C)C/C=C/C(C)(C)O)CC[C@@H]2C
inactive: MOLT-4 35.9 µM | DU-145 98.6 µM | IGROV-1 69.5 µM | MDA-MB-231 > 100 µM | OVCAR-3 25.5 µM | U-251 52.7 µM | 786-0 > 100 µM | SW-620 77.4 µM | ACHN 31.4 µM | SNB-19 83.6 µM | K562 41.1 µM | SF-539 > 100 µM | OVCAR-8 78.9 µM | MCF7 41.1 µM | LOX IMVI 29.6 µM | SK-MEL-2 39.5 µM | M14 61 µM | SF-295 44.3 µM

CN1C(=O)c2ccccc2C(O)(c2ccccc2)C1(O)c1ccccc1 (stereo not given)
inactive: MOLT-4 48.1 µM | IGROV-1 58.5 µM | MDA-MB-231 > 100 µM | OVCAR-3 > 100 µM | U-251 > 100 µM | SNB-75 91 µM | 786-0 > 100 µM | SW-620 > 100 µM | ACHN > 100 µM | SNB-19 > 100 µM | K562 > 100 µM | SF-539 > 100 µM | OVCAR-8 > 100 µM | HCC 2998 87.9 µM | LOX IMVI > 100 µM | SK-MEL-2 > 100 µM | M14 > 100 µM | SF-295 > 100 µM

CC[C@H](CCCC[C@H]1CC[C@@H]2CC(=O)C[C@H]12)OC
inactive: MOLT-4 53.6 µM | IGROV-1 > 100 µM | MDA-MB-231 > 100 µM | OVCAR-3 85.3 µM | U-251 95.5 µM | SNB-75 > 100 µM | 786-0 > 100 µM | ACHN > 100 µM | SNB-19 > 100 µM | K562 13 µM | SF-539 > 100 µM | OVCAR-8 > 100 µM | HCC 2998 > 100 µM | LOX IMVI > 100 µM | SK-MEL-2 > 100 µM | M14 > 100 µM | SF-295 65.9 µM

O=C(O)C(C1NCCS1)N1C(=O)c2ccccc2C1=O (stereo not given)
inactive: MOLT-4 > 100 µM | DU-145 > 100 µM | IGROV-1 > 100 µM | MDA-MB-231 > 100 µM | OVCAR-3 > 100 µM | U-251 > 100 µM | SNB-75 > 100 µM | 786-0 > 100 µM | SW-620 > 100 µM | ACHN > 100 µM | SNB-19 > 100 µM | K562 > 100 µM | SF-539 > 100 µM | OVCAR-8 > 100 µM | MCF7 > 100 µM | LOX IMVI > 100 µM | SK-MEL-2 > 100 µM | M14 > 100 µM | SF-295 > 100 µM

CCOc1nc(N)nc(C)c1/N=N/c1ccc(Cl)cc1
inactive: MOLT-4 10.7 µM | DU-145 > 100 µM | IGROV-1 > 100 µM | MDA-MB-231 > 100 µM | OVCAR-3 > 100 µM | U-251 > 100 µM | SNB-75 > 100 µM | 786-0 > 100 µM | SW-620 > 100 µM | ACHN > 100 µM | SNB-19 > 100 µM | K562 48.5 µM | SF-539 36.9 µM | OVCAR-8 > 100 µM | MCF7 > 100 µM | LOX IMVI > 100 µM | SK-MEL-2 > 100 µM | M14 > 100 µM | SF-295 25.5 µM

CC12C=CC(C)(C3C(=O)C4C(C(=O)C31)C1(C)C=CC4(C)[S+]1[O-])[S+]2[O-] (stereo not given)
inactive: DU-145 > 100 µM | IGROV-1 83.9 µM | MDA-MB-231 > 100 µM | OVCAR-3 > 100 µM | SNB-75 57.5 µM | 786-0 51.2 µM | ACHN > 100 µM | SNB-19 50.6 µM | SF-539 25.4 µM | OVCAR-8 56 µM | HCC 2998 > 100 µM | LOX IMVI 81.5 µM | M14 > 100 µM | SF-295 > 100 µM

CC(C)(C)OC(=O)n1c(Cl)c(C=O)c2ccccc21
inactive: MOLT-4 51.8 µM | DU-145 19.3 µM | IGROV-1 28.2 µM | MDA-MB-231 33.3 µM | OVCAR-3 19.4 µM | U-251 35.6 µM | SNB-75 68.5 µM | 786-0 21 µM | SW-620 36.2 µM | ACHN 23.9 µM | SNB-19 86.1 µM | K562 38.7 µM | SF-539 30.1 µM | OVCAR-8 28.1 µM | LOX IMVI 26.4 µM | SK-MEL-2 30.1 µM | M14 34.8 µM | SF-295 63.2 µM

Nc1ncnc2c1sc(=S)n2-c1ccccc1
inactive: MOLT-4 > 100 µM | IGROV-1 > 100 µM | OVCAR-3 > 100 µM | U-251 > 100 µM | SNB-75 > 100 µM | 786-0 > 100 µM | SW-620 > 100 µM | ACHN > 100 µM | SNB-19 > 100 µM | K562 > 100 µM | SF-539 > 100 µM | OVCAR-8 > 100 µM | HCC 2998 > 100 µM | LOX IMVI > 100 µM | SK-MEL-2 > 100 µM | M14 > 100 µM | SF-295 > 100 µM

O=c1ccc(-c2ccc(-n3ccnc3)cc2)nn1CCO
inactive: MOLT-4 > 100 µM | DU-145 > 100 µM | IGROV-1 > 100 µM | OVCAR-3 > 100 µM | U-251 > 100 µM | SNB-75 39.9 µM | 786-0 > 100 µM | SW-620 > 100 µM | ACHN > 100 µM | SNB-19 > 100 µM | SF-539 > 100 µM | OVCAR-8 > 100 µM | MCF7 89.3 µM | HCC 2998 > 100 µM | M14 > 100 µM | SF-295 > 100 µM

NS(=O)(=O)c1ccc(NS(=O)(=O)c2ccc(NC(=O)N(c3ccccc3)c3ccccc3)cc2)cc1
inactive: MOLT-4 34 µM | DU-145 43.3 µM | IGROV-1 59 µM | MDA-MB-231 > 100 µM | OVCAR-3 19.1 µM | U-251 > 100 µM | 786-0 68.9 µM | SW-620 > 100 µM | ACHN > 100 µM | SNB-19 > 100 µM | K562 26.1 µM | OVCAR-8 > 100 µM | MCF7 52.7 µM | LOX IMVI 34.4 µM | SK-MEL-2 48.5 µM | M14 41.3 µM | SF-295 35.7 µM
